Source: patent US7053228B2, “Sulfur analogues of 21-hydroxy-6,19-oxidoprogesterone (21OH-6OP) for treating excess of glucocorticoids” (Applied Research Systems ARS Holding N.V., priority 2000, dated 2006)

Experiments:
rat thymocytes = test: Apoptosis in rat thymocytes (annexin V-FITC/propidium iodide flow cytometry); format: cell-based; conditions: early + late apoptosis
Protocol: On this basis, the antiglucocorticoid properties of the compounds of the present invention may be determined by examining the decrease/increase of apoptosis in rat thymocytes after treatment with a given test compounds. Regulation of apoptosis was analyzed by flow cytometry. The method consists of quantifying fluorometrically the apoptotic cells in the sample. In normal viable cells phosphatidyl serine (PS) is located on the cytoplasmic surface of the cell membrane. Upon induction of apoptosis, rapid alteration in the organization of phospholipids in most cell types occurs leading to exposure of PS on the cell surface. In vitro detection of externalized PS may be achieved through interaction with the anticoagulant annexin V. In the presence of calcium, rapid high affinity binding of annexin V to PS occurs. PS translocation to the cell surface precedes nuclear breakdown, DNA fragmentation and the appearance of most apoptosis-associated molecules making annexin V binding a marker of early-stage apoptosis. In the assay used, a fluorescein isothiocyanate (FITC) conjugate of annexin V is used allowing detection of apoptosis by flow cytometry. Since membrane permeabilization is observed in necrosis, necrotic cells will also bind annexin V-FITC. Propidium iodide is used to distinguish between viable and early apoptotic cells thus the latter will be labeled only with FITC while late apoptotic cells will be labeled with FITC and propidium iodide. An annexin V-FITC apoptosis detection kit from Oncogen Research Products (cat. No. PF032) was used following the RAPID protocol recommended by the manufacturer. Briefly, after incubation with various compounds (see below), cells were centrifuged at 2000 rpm for 5 min, the media removed and cell pellets washed with phosphate buffered saline (PBS): Cells were resuspended in the binding buffer to a density of 1×10^6 cells/ml. Binding reagent (10 μl) and annexin V/FITC (1.25 μl) were added and cells incubated for 15 min at room temperature in the dark. The cells were centrifuged and to the pellet were added binding buffer (0.5 ml) and propidium iodide (10 μl). Samples were analyzed by flow cytometry in a Cytoron Absolute cytometer (Ortho Diagnostic Systems). […] The cytograms obtained are presented in FIGS. 3a-3f, where GR-FL represents fluorescence from FITC and RD-FL represents fluorescence from propidium iodide. […] Early apoptotic cells with exposed PS but intact cell membranes appear in the […] quadrant. Necrotic or late apoptotic cells appear in the upper right quadrant. A small percentage of normal cell death may also occur, none is observed in this case.

kidney-MR = target: T1, kidney-MR (Homo sapiens, UniProt P08235); conditions: cited from earlier work
T1 construct: host or cells: kidney
T1 sequence (P08235 1-984): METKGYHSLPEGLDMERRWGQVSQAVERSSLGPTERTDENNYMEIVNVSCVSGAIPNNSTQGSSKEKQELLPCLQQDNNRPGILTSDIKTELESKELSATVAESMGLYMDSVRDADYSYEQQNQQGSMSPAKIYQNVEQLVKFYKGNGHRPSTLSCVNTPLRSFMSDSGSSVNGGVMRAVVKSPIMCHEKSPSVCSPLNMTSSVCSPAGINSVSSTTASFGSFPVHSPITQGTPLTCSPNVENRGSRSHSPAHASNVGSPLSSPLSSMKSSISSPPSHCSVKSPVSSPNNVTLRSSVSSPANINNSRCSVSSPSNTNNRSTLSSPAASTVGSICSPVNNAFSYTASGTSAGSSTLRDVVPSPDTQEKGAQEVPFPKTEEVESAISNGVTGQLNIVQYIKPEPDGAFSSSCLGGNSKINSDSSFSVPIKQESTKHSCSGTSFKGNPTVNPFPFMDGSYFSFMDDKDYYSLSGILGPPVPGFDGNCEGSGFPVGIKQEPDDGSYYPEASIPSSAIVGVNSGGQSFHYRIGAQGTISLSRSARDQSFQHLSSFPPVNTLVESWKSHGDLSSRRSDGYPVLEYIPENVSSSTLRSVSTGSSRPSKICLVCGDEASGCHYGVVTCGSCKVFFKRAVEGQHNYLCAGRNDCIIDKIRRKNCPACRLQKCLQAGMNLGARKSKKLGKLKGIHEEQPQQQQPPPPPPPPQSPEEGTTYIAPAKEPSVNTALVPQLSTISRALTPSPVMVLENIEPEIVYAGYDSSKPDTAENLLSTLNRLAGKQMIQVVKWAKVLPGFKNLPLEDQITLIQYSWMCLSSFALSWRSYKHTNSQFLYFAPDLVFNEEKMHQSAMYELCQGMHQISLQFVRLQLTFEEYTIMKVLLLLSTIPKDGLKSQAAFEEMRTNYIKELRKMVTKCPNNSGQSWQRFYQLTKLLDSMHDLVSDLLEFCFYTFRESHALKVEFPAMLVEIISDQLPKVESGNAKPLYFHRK

uterus-PR = target: T2, uterus-PR (Homo sapiens, UniProt P06401); conditions: cited from earlier work
T2 construct: host or cells: uterus
T2 sequence (P06401 1-933): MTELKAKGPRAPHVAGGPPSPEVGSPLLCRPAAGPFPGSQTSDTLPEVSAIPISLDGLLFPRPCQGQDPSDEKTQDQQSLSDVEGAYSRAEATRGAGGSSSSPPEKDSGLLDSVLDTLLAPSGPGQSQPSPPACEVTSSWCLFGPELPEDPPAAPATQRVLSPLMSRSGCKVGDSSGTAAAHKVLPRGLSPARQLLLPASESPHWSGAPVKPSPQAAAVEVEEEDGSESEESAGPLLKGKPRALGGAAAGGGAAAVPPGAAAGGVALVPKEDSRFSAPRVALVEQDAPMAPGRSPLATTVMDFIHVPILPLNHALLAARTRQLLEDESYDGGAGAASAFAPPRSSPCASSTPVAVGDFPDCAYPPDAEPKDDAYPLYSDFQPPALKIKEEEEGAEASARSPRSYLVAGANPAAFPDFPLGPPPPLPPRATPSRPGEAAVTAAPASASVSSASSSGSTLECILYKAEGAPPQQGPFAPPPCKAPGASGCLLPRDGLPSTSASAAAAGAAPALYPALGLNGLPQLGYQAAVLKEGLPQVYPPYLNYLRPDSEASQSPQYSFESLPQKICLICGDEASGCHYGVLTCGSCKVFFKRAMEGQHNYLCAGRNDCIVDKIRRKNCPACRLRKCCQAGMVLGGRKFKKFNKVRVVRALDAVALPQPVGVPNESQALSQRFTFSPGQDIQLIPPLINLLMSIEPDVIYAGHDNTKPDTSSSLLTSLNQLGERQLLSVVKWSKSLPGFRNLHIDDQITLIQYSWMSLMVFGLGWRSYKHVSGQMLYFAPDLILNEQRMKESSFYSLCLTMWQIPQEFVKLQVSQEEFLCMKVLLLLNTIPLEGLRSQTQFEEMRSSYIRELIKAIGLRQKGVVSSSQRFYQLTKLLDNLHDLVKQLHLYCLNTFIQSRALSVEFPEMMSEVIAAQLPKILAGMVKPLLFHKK

glucocorticoid receptor = target: T3, glucocorticoid receptor (Homo sapiens, UniProt P04150); test: Reporter gene assay pMMTV-Luc expression in Cos-1 line; format: cell-based; conditions: test compound 10^−6 M with dexamethasone; Cos-1 cells transfected with pMMTV-Luc and pRSV-GR
T3 construct: expressed in transfected cells; host or cells: Cos-1
T3 sequence (P04150 1-777): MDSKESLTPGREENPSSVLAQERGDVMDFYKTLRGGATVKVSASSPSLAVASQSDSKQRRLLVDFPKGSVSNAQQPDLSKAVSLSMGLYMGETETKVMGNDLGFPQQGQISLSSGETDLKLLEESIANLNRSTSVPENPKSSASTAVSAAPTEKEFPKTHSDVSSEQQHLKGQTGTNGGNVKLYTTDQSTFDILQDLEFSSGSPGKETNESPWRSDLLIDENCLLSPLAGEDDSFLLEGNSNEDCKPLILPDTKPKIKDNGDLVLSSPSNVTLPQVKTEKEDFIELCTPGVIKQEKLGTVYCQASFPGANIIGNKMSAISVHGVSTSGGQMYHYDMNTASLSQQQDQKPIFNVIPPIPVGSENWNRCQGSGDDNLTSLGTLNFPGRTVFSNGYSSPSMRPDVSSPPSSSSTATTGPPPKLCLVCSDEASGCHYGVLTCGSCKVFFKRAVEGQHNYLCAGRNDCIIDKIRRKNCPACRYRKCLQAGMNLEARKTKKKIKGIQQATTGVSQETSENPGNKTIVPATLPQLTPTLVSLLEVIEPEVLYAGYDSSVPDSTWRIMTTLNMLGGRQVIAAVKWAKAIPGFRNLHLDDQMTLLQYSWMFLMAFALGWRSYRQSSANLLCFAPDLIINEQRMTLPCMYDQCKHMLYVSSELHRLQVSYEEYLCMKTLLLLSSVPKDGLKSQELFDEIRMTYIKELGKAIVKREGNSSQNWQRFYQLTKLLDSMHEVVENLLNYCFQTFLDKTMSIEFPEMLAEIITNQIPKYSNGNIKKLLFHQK
Protocol: vol. 7 No. 10 (1989). The assay may discriminate between gluco/antigluco- and progestin/antiprogestin-effects of the test compounds. Cells were grown on 100 mm plates with 8 ml D-MEM (Dubecco's modified Eagle's medium Gibco BRL), supplemented with 10% bovine fetal serum (Bioser), 3,7 g/l sodium bicarbonate and 100 IU/penicilin G, 100 μg/ml streptomycin, 0,25 μg amphotericin B in an atmosphere in an of 5% CO2 at 37° C. Cells were treated with 0,25% trypsin, 1 mM EDTA and were plated at a density of 5×10^5 cells/plate, in 60 mm plates. Cos-1 cells were transfected with a construct encoding the glucocorticoid receptor, and a construct with the luciferase gene under the MMTV promoter. Cells were transfected by precipitation with calcium phosphate adding 25 μl of a 2M CaCl2 solution to a solution containing 3 pmoles of vectors pMMTV-Luc and pRSV-GR encoding luciferase and the glucocorticoid receptor, respectively. […]
The transfection mixture was added dropwise to an equal volume of transfection buffer 2×BBS, containing phosphate. […] From the supernatant the luciferase activity was determined. […] Luciferase expression was assayed employing a Promega kit in partial obscurity and measured with a Junior luminometer (EG&G Berthold, Germany).
β Galactosidase was determined by hydrolysis of a phenyl galactoside. […]

[1] = Dexamethasone 10^−8 M + test compound 10^−5 M, 4 h at 37° C.

## C[C@]12CCC3C(C[C@H]4SC[C@@]35CCC(=O)C=C45)C1CCC2C(=O)CO (stereo partly drawn) [Compound 3, 21-Hydroxy-6,19-sulfanyl-4-pregnene-3,20-dione]
Rat thymocytes; [1]
  % total apoptosis: 37.50%

## C[C@]12CCC3C(C[C@H]4OC[C@@]35CCC(=O)C=C45)C1CCC2C(=O)CO (stereo partly drawn) [Compound 21OH-6OP, 21-hydroxy-6,19-oxidoprogesterone]
Rat thymocytes; [1]
  % total apoptosis: 38.10%
kidney-MR
  cross-reaction with kidney-MR: does not substantially cross-react
uterus-PR
  cross-reaction with uterus-PR: does not substantially cross-react

## C[C@]12CCC3C(C[C@@H]4C5=CC(=O)CC[C@@]53CS4(=O)=O)C1CCC2C(=O)CO (stereo partly drawn) [Compound 5, 21-Hydroxy-6,19-sulfone-4-pregnene-3,20-dione]
Rat thymocytes; [1]
  % total apoptosis: 31.40%

## C[C@]12CCC3C(C[C@@H]4C5=CC(=O)CC[C@@]53C[S+]4[O-])C1CCC2C(=O)CO (stereo partly drawn) [Compound 4, 21-Hydroxy-6,19-sulfoxy-4-pregnene-3,20-dione]
Glucocorticoid receptor
  reduction of the luciferase/β galactosidase ratio: about 65%
Rat thymocytes; [1]
  % total apoptosis: 34.60%

## CC#C[C@]1(O)CC[C@H]2[C@@H]3CCC4=CC(=O)CCC4=C3[C@@H](c3ccc(N(C)C)cc3)C[C@@]21C [RU-486, 11-(4-Dimethylamino-phenyl)-17-hydroxy-13-methyl-17-prop-1-ynyl-1,2,6,7,8,11,12,13,14,15,16,17-dodecahydro-cyclopenta[α]phenanthren-3-one]
Rat thymocytes; Dexamethasone 10^−8 M + reference compound 10^−6 M, 4 h at 37° C.
  % total apoptosis: 35.50%

## C[C@@H]1C[C@H]2[C@@H]3CCC4=CC(=O)C=C[C@]4(C)[C@@]3(F)[C@@H](O)C[C@]2(C)[C@@]1(O)C(=O)CO [Dexamethasone]
Rat thymocytes; Dexamethasone 10^−8 M alone, thymocytes 4 h at 37° C.
  % total apoptosis: 40.40%
